Values after ≈ are worked out from the molar mass of the structure shown. Like-named read-outs stand apart in the source and are kept apart here.
Columns and labels:
[1] = test system: S. aureus IID 670 (Terajima); assay: MIC, in vitro antibacterial activity (standard strains); assay type: cell-based, Staphylococcus aureus; settings: Staphylococcus aureus, IID670; 10^6 cells/ml; Gram +; read-out: MIC
[2] = test system: Escherichia coli NIHJ JC-2; assay: as above; assay type: cell-based; settings: Escherichia coli, NIHJJC2
P. mirabilis IID 994 = assay: as above; assay type: cell-based; settings: Proteus mirabilis, IID994; 10^6 cells/ml; Gram -; read-out: MIC
[3] = test system: Morganella morganii IID 602; assay: as above; assay type: cell-based; settings: Morganella morganii, IID602; 10^6 cells/ml; Gram -; read-out: MIC
[4] = test system: Klebsiella pneumoniae KY(GN)6445; assay: as above; assay type: cell-based; settings: Klebsiella pneumoniae; 10^6 cells/ml; Gram -; read-out: MIC
[5] = test system: Enterobacter cloacae IID 977; assay: as above; assay type: cell-based; settings: Enterobacter cloacae, IID977; 10^6 cells/ml; Gram -; read-out: MIC
[6] = test system: Serratia marcescens IID 618; assay: as above; assay type: cell-based; settings: Serratia marcescens, IID618; 10^6 cells/ml; Gram -; read-out: MIC
P. aeruginosa IFO 12689 = assay: as above; assay type: cell-based, Pseudomonas aeruginosa; settings: Pseudomonas aeruginosa, IFO12689; 10^6 cells/ml; Gram -; read-out: MIC
P. aeruginosa IID 1210 = assay: as above; assay type: cell-based, Pseudomonas aeruginosa; settings: Pseudomonas aeruginosa, IID1210; 10^6 cells/ml; Gram -; read-out: MIC
P. maltophilia GIFU 2491 = assay: as above; assay type: cell-based; settings: Stenotrophomonas maltophilia, GIFU2491; 10^6 cells/ml; Gram -; read-out: MIC
[7] = test system: B. thetaiotaomicron (0661); assay: as above; assay type: cell-based; settings: Bacteroides thetaiotaomicron; 10^6 cells/ml; Gram -; read-out: MIC
B. vulgatus KYA 29327 = assay: as above; assay type: cell-based; settings: Phocaeicola vulgatus, KYA29327; 10^6 cells/ml; Gram -; read-out: MIC
[8] = test system: Eubacterium lentum GAI 5242; assay: as above; assay type: cell-based; settings: Eggerthella lenta, GAI5242; 10^6 cells/ml; Gram +; read-out: MIC
[9] = test system: Peptococcus magnus KY 017; assay: as above; assay type: cell-based; settings: Finegoldia magna, KY017; 10^6 cells/ml; Gram +; read-out: MIC
Pst. micros UPI 5464-1 = assay: as above; assay type: cell-based; settings: Parvimonas micra, UPI54641; 10^6 cells/ml; Gram +; read-out: MIC
MR S. aureus KYB 623 [10] = assay: MIC of the infecting strain MR S. aureus KYB 623; assay type: cell-based; settings: Staphylococcus aureus; Table 3, strain of the mouse infection
MR S. aureus KYB 623 [11] = assay: Therapeutic efficacy against systemic infections in mice, MR S. aureus KYB 623; settings: Staphylococcus aureus, in Mus musculus, po, 1 h
S. pyogenes IID 692 = assay: MIC, in vitro antibacterial activity (standard strains); assay type: cell-based, Streptococcus pyogenes; settings: Streptococcus pyogenes, IID692; 10^6 cells/ml; Gram +; read-out: MIC
S. pneumoniae S-4288 [12] = assay: MIC of the infecting strain S. pneumoniae S-4288; assay type: cell-based; settings: Streptococcus pneumoniae, S4288; Table 4, strain of the mouse infection
E. coli ML 4707 = assay: Therapeutic efficacy against systemic infections in mice, E. coli ML 4707; settings: Escherichia coli, ML4707, in Mus musculus, po, 1 h
S. pneumoniae S-4288 [13] = assay: Therapeutic efficacy against systemic infections in mice, S. pneumoniae S-4288; settings: Streptococcus pneumoniae, S4288, in Mus musculus, po, 1 h
[14] = 10^6 cells/ml, Gram -, read-out: MIC

Row | SMILES | MIC [1] [µg/mL] | MIC [2, 14] [µg/mL] | MIC (P. mirabilis IID 994) [µg/mL] | MIC [3] [µg/mL] | MIC [4] [µg/mL] | MIC [5] [µg/mL] | MIC [6] [µg/mL] | MIC (P. aeruginosa IFO 12689) [µg/mL] | MIC (P. aeruginosa IID 1210) [µg/mL] | MIC (P. maltophilia GIFU 2491) [µg/mL] | MIC [7] [µg/mL] | MIC (B. vulgatus KYA 29327) [µg/mL] | MIC [8] [µg/mL] | MIC [9] [µg/mL] | MIC (Pst. micros UPI 5464-1) [µg/mL] | MIC (S. pyogenes IID 692) [µg/mL] | other results
1 | C[C@@H]1CN(c2c(F)cc3c(=O)c(C(=O)O)cn(C4CC4)c3c2Cl)C[C@H]1N (relative stereo) [Example 17, 7-(trans-3-Amino-4-methyl-1-pyrrolidinyl)-8-chloro-1-cyclopropyl-6-fluoro-1,4-dihydro-4-oxo-3-quinolinecarboxylic acid] | 0.05 (≈ 0.132 µM) | 0.0063 (≈ 0.0166 µM) | 0.025 (≈ 0.0658 µM) | 0.05 (≈ 0.132 µM) | 0.0125 (≈ 0.0329 µM) | 0.05 (≈ 0.132 µM) | 0.05 (≈ 0.132 µM) | 0.39 (≈ 1.03 µM) | 0.39 (≈ 1.03 µM) | 0.05 (≈ 0.132 µM) | 0.1 (≈ 0.263 µM) | 0.05 (≈ 0.132 µM) | 0.05 (≈ 0.132 µM) | 0.05 (≈ 0.132 µM) | 0.05 (≈ 0.132 µM) | – | MIC (MR S. aureus KYB 623 [10]): 0.0125 µg/mL; ED50 (MR S. aureus KYB 623 [11]): 2.1 mg/kg
2 | CCn1cc(C(=O)O)c(=O)c2cc(F)c(N3C[C@@H](N)[C@@H](C)C3)c(Cl)c21 (relative stereo) [Example 23, 7-(cis-3-Amino-4-methyl-1-pyrrolidinyl)-8-chloro-1-ethyl-6-fluoro-1,4-dihydro-4-oxo-3-quinolinecarboxylic acid] | 0.2 (≈ 0.544 µM) | 0.025 (≈ 0.068 µM) | 0.05 (≈ 0.136 µM) | 0.1 (≈ 0.272 µM) | 0.05 (≈ 0.136 µM) | 0.1 (≈ 0.272 µM) | 0.05 (≈ 0.136 µM) | 1.56 (≈ 4.24 µM) | 6.25 (≈ 17 µM) | 0.39 (≈ 1.06 µM) | 1.56 (≈ 4.24 µM) | 1.56 (≈ 4.24 µM) | 1.56 (≈ 4.24 µM) | 0.78 (≈ 2.12 µM) | 0.78 (≈ 2.12 µM) | 0.78 (≈ 2.12 µM) | –
3 | C[C@H]1CN(c2c(F)cc3c(=O)c(C(=O)O)cn(C4CC4)c3c2Br)C[C@H]1N (relative stereo) [Example 21, 7-(cis-3-Amino-4-methyl-1-pyrrolidinyl)-8-bromo-1-cyclopropyl-6-fluoro-1,4-dihydro-4-oxo-3-quinolinecarboxylic acid] | 0.05 (≈ 0.118 µM) | 0.0063 (≈ 0.0148 µM) | 0.025 (≈ 0.0589 µM) | 0.05 (≈ 0.118 µM) | 0.0125 (≈ 0.0295 µM) | 0.025 (≈ 0.0589 µM) | 0.025 (≈ 0.0589 µM) | 0.78 (≈ 1.84 µM) | 1.56 (≈ 3.68 µM) | 0.05 (≈ 0.118 µM) | 0.2 (≈ 0.471 µM) | 0.1 (≈ 0.236 µM) | 0.05 (≈ 0.118 µM) | 0.05 (≈ 0.118 µM) | 0.1 (≈ 0.236 µM) | 0.2 (≈ 0.471 µM) | –
4 | CNCC1CN(c2c(F)cc3c(=O)c(C(=O)O)cn(C4CC4)c3c2Cl)CC1C (centres unmarked) [Example 12, 8-Chloro-1-cyclopropyl-6-fluoro-1,4-dihydro-7-(3-methylaminomethyl-4-methyl-1-pyrrolidinyl)-4-oxo-3-quinolinecarboxylic acid] | 0.0125 (≈ 0.0306 µM) | 0.05 (≈ 0.123 µM) | 0.2 (≈ 0.49 µM) | 0.2 (≈ 0.49 µM) | 0.05 (≈ 0.123 µM) | 0.2 (≈ 0.49 µM) | 0.2 (≈ 0.49 µM) | 1.56 (≈ 3.82 µM) | 1.56 (≈ 3.82 µM) | 0.2 (≈ 0.49 µM) | 0.39 (≈ 0.956 µM) | 0.2 (≈ 0.49 µM) | 0.2 (≈ 0.49 µM) | 0.05 (≈ 0.123 µM) | 0.39 (≈ 0.956 µM) | 0.05 (≈ 0.123 µM) | –
5 | CNCC1CN(c2c(F)cc3c(=O)c(C(=O)O)cn(C4CC4)c3c2F)CC1C (centres unmarked) [Example 13, 1-Cyclopropyl-6,8-difluoro-1,4-dihydro-7-(3-methylaminomethyl-4-methyl-1-pyrrolidinyl)-4-oxo-3-quinolinecarboxylic acid] | 0.05 (≈ 0.128 µM) | 0.05 (≈ 0.128 µM) | 0.2 (≈ 0.511 µM) | 0.2 (≈ 0.511 µM) | 0.05 (≈ 0.128 µM) | 0.2 (≈ 0.511 µM) | 0.2 (≈ 0.511 µM) | 3.13 (≈ 8 µM) | 1.56 (≈ 3.99 µM) | 0.39 (≈ 0.996 µM) | 3.13 (≈ 8 µM) | 1.56 (≈ 3.99 µM) | 0.78 (≈ 1.99 µM) | ≤ 0.05 | 0.78 (≈ 1.99 µM) | 0.2 (≈ 0.511 µM) | –
6 | CC1CN(c2c(F)cc3c(=O)c(C(=O)O)cn(C4CC4)c3c2F)CC1N.Cl (centres unmarked) [Example 11, 7-(3-Amino-4-methyl-1-pyrrolidinyl)-1-cyclopropyl-6,8-difluoro-1,4-dihydro-4-oxo-3-quinolinecarboxylic acid hydrochloride] | 0.1 | – | 0.05 | 0.05 | 0.025 | 0.05 | 0.05 | 0.39 | 0.39 | 0.1 | 0.78 | 0.39 | 0.39 | 0.2 | 0.39 | – | MIC [2]: 0.0125 µg/mL; MIC (S. pneumoniae S-4288 [12]): 0.2 µg/mL; ED50 (E. coli ML 4707): 1 mg/kg; ED50 (S. pneumoniae S-4288 [13]): 20.7 mg/kg
7 | CCn1cc(C(=O)O)c(=O)c2cc(F)c(N3C[C@@H](N)[C@@H](C)C3)c(F)c21 (relative stereo) [Example 22, 7-(cis-3-Amino-4-methyl-1-pyrrolidinyl)-1-ethyl-6,8-difluoro-1,4-dihydro-4-oxo-3-quinolinecarboxylic acid] | 0.2 (≈ 0.569 µM) | 0.05 (≈ 0.142 µM) | 0.1 (≈ 0.285 µM) | 0.2 (≈ 0.569 µM) | 0.05 (≈ 0.142 µM) | 0.1 (≈ 0.285 µM) | 0.1 (≈ 0.285 µM) | 1.56 (≈ 4.44 µM) | 6.25 (≈ 17.8 µM) | 0.78 (≈ 2.22 µM) | 3.13 (≈ 8.91 µM) | 3.13 (≈ 8.91 µM) | 1.56 (≈ 4.44 µM) | 1.56 (≈ 4.44 µM) | 0.78 (≈ 2.22 µM) | 0.78 (≈ 2.22 µM) | –
8 | C[C@H]1CN(c2c(F)cc3c(=O)c(C(=O)O)cn(C4CC4)c3c2Cl)C[C@H]1N (relative stereo) [Example 16, 7-(cis-3-Amino-4-methyl-1-pyrrolidinyl)-8-chloro-1-cyclopropyl-6-fluoro-1,4-dihydro-4-oxo-3-quinolinecarboxylic acid] | 0.05 (≈ 0.132 µM) | 0.0063 (≈ 0.0166 µM) | 0.025 (≈ 0.0658 µM) | 0.05 (≈ 0.132 µM) | 0.025 (≈ 0.0658 µM) | 0.05 (≈ 0.132 µM) | 0.05 (≈ 0.132 µM) | 0.39 (≈ 1.03 µM) | 0.39 (≈ 1.03 µM) | 0.05 (≈ 0.132 µM) | 0.1 (≈ 0.263 µM) | 0.05 (≈ 0.132 µM) | 0.05 (≈ 0.132 µM) | 0.05 (≈ 0.132 µM) | 0.1 (≈ 0.263 µM) | 0.1 (≈ 0.263 µM) | MIC (MR S. aureus KYB 623 [10]): 0.025 µg/mL; MIC (S. pneumoniae S-4288 [12]): 0.1 µg/mL; ED50 (E. coli ML 4707): 1 mg/kg; ED50 (MR S. aureus KYB 623 [11]): 3.7 mg/kg; ED50 (S. pneumoniae S-4288 [13]): 12.1 mg/kg
9 | CC1COc2c(N3C[C@@H](N)[C@@H](C)C3)c(F)cc3c(=O)c(C(=O)O)cn1c23.Cl (relative stereo) [Example 29, 10-(cis-3-Amino-4-methyl-1-pyrrolidinyl)-9-fluoro-2,3-dihydro-3-methyl-7-oxo-7H-pyrido[1,2,3-de][1,4]benzoxazine-6-carboxylic acid hydrochloride] | 0.39 | 0.025 | 0.1 | 0.2 | 0.05 | 0.2 | 0.1 | 1.56 | 6.25 | 1.56 | 6.25 | 6.25 | 0.78 | 0.78 | 0.39 | 0.39 | –

Source: patent US4753953A, “Pyridonecarboxylic acid derivatives and antibacterial pharmaceutical compositions thereof” (priority 1985, dated 1988)
